The record followed here is patent publication US20120238488A1, “COMPOUNDS AND METHODS FOR TREATING NEOPLASIA” (priority 2009, published 2012).

For one assay, the system named is H160 (Lung). As to the kind of experiment: SRB assay, H160. The conditions noted are these: 48 h. It is filed as cell-based, human. As for the experimental part: (§1) SRB assays were performed according to standard National Cancer Institute Guidelines. Briefly, human tumor cells from different cancer panels were seeded into 96 well plates in 100 μL (plating densities ranging from 5-40,000 cells/well depending on the doubling time of individual cell lines) in serum-containing media for twenty-four hours prior to the addition of the compounds to be assayed. After 24 hours, one plate of each cell line was fixed in situ with trichloroacetic acid (TCA). The fixed slides were used to determine the cell population for each cell line at the time of drug addition (Tz). Each compound to be tested was solubilized in DMSO and the desired concentration was then added to the medium and diluted serially 1:10 to provide a total of five or ten drug concentrations plus control (in a final volume of 200 μL). The starting dose before any dilution was 100 uM for all compounds.
(§2) Following drug addition, each culture was incubated for forty-eight hours. The assay was terminated with the addition of cold TCA. The supernatant was discarded, and the plates were washed with tap water and air dried. Sulforhodamine B (SRB) solution was then added to each well. After staining, the bound stain was solubilized and the absorbance was read on an automated plate reader at a wavelength of 515 nm.
(§3) Using the absorbance measurements [time zero, (Tz), control growth, (C), and test growth in the presence of drug at the ten concentration levels (Ti)], the percentage growth was calculated at each of the drug concentrations levels. Percentage growth inhibition was calculated as:
(§4) [(Ti−Tz)/(C−Tz)]×100 for concentrations for which Ti>/=Tz
(§5) [(Ti−Tz)/Tz]×100 for concentrations for which Ti<Tz.
(§6) Three dose response parameters were calculated for each experimental agent. Growth inhibition of 50% (GI50) was calculated from [(Ti−Tz)/(C−Tz)]×100=50, which was the drug concentration resulting in a 50% reduction in the net protein increase (as measured by SRB staining) in control cells during the drug. The drug concentration resulting in total growth inhibition (TGI) was calculated from Ti=Tz. The LC50 (concentration of drug resulting in a 50% reduction in the measured protein at the end of the drug treatment as compared to that at the beginning) indicating a net loss of cells following treatment was calculated from [(Ti−Tz)/Tz]×100=−50.
(§7) Values were calculated for each of these three parameters when the level of activity was reached; however, if the effect was not reached or was exceeded, the value for that parameter was expressed as greater or less than the maximum or minimum concentration tested.
(§8) Table 4 summarizes results characterizing the effects of compound Nos. 120, 12, 61, 1, and 56 on GI50, which measures the cell growth inhibitory power of the compound, TGI, which measures cytostatic effect (TGI) and LC50, which signifies cytotoxic effect. Each of these parameters in Table 4 was calculated in a sulforhodamine B (SRB) assay, which provides a colorimetric measure of a compound's anti-cancer activity. SRB assays were performed with compounds of the invention in 22 different cell lines (shaded in light gray in Table 4), which represent nine different tumor panels (lung, melanoma, ovary, prostate, CNS, breast, pancreas colon and renal). Ouabain and digoxin were used as controls. Paclitaxel was added as a non-Na^+K^+-ATPase inhibitor control.
(In SRB staining, fixed cells bind dye roughly in proportion to their protein.)

Assay [1] has as its system HCT116 colon cancer, PC3 and DU145 prostate cancer cell lines. As to the kind of experiment: MTT proliferation/viability assay. It is filed as cell-based. Conditions: 72 h, FIGS. 1A-1D, HCT116 only compound 120. As for the experimental part:
All assays were performed in triplicate.
The effect of the different compounds on the proliferation and viability of cancer cell lines was tested. Compound 120 was tested in one colon cancer cell line (HCT116), and compound Nos. 120, 12, 61, 1, and 56 were tested in two prostate cancer cell lines (PC3 and DU145). […] This colorimetric assay uses the reduction of MTT to formazan as a measure of metabolic activity. Untreated cells cultured in the presence of serum were used as a negative control.

For the next assay, the system named is IGROV1 (Ovary). Kind of assay: SRB assay, IGROV1. It is filed as cell-based, human. As for the experimental part: as §1, §2, §3, §4, §5, §6, §7, §8
Another assay deals with MCF7 (Breast). Kind of assay: SRB assay, MCF7. The class given is cell-based, human. As for the experimental part: as §1, §2, §3, §4, §5, §6, §7, §8
The next assay concerns HCT15 (Colon). Kind of assay: SRB assay, HCT15. The class given is cell-based, human. As for the experimental part:
as §1, §2, §3, §4, §5, §6, §7, §8

Another assay has as its system U251 (CNS). Kind of assay: SRB assay, U251. It is filed as cell-based, human. As for the experimental part:
as §1, §2, §3, §4, §5, §6, §7, §8

A further assay deals with SU8686 (Pancreas). As to the kind of experiment: SRB assay, SU8686. The class given is cell-based, human. As for the experimental part:
as §1, §2, §3, §4, §5, §6, §7, §8

Assay [2] has as its system 22 different cell lines, nine tumor panels (lung, melanoma, ovary, prostate, CNS, breast, pancreas colon and renal). Kind of assay: SRB assay, all tumor cell line panels (summary statements). The class given is cell-based, human. As for the experimental part: as §1, §2, §3
Three dose response parameters were calculated for each experimental agent. […] The drug concentration resulting in total growth inhibition (TGI) was calculated from Ti=Tz. The LC50 (concentration of drug resulting in a 50% reduction in the measured protein at the end of the drug treatment as compared to that at the beginning) indicating a net loss of cells following treatment was calculated from [(Ti−Tz)/Tz]×100=−50.
Each of these parameters in Table 4 was calculated in a sulforhodamine B (SRB) assay, which provides a colorimetric measure of a compound's anti-cancer activity. SRB assays were performed with compounds of the invention in 22 different cell lines (shaded in light gray in Table 4), which represent nine different tumor panels (lung, melanoma, ovary, prostate, CNS, breast, pancreas colon and renal). […] Paclitaxel was added as a non-Na^+K^+-ATPase inhibitor control.

Another assay relates to LOXIMVI (Melanoma). As to the kind of experiment: SRB assay, LOXIMVI. It is filed as cell-based, human. The conditions noted are these: 48 h. As for the experimental part:
as §1, §2, §3, §4, §5, §6, §7, §8

As usually defined, the TGI is the concentration giving total growth inhibition. Read a high TGI as less potent growth arrest. What is called GI50 is the concentration that inhibits growth by half.

In the case of `C[C@]12CCC(=NOCCN)C=C1CCC1C2CC[C@@]2(C)C1CC[C@@H]2O` (stereo partly drawn) [Compound 120, (1S,9aR,11aS)-17-hydroxy-10,13-dimethyl-6,7,8,9,10,11,12,13,14,15,16,17-dodecahydro-1H-cyclopenta[a]phenanthren-3(2H)-one O-2-aminoethyl oxime], the total growth inhibition concentration (TGI) in the assay with H160 (Lung) (H160, SRB) was determined as 11.68 µM; with IGROV1 (Ovary) (IGROV1, SRB, 48 h), 10.74 µM; with MCF7 (Breast) (MCF7, SRB, 48 h) it was 14.85 µM; with HCT15 (Colon) (HCT15, SRB, 48 h), 23.51 µM; with U251 (CNS) (U251, SRB, 48 h), 27.92 µM; with SU8686 (Pancreas) (SU8686, SRB, 48 h), 15.27 µM. The compound also returned a concentration for total growth inhibition (TGI) in the assay on LOXIMVI (Melanoma) (LOXIMVI, SRB) of 25.19 µM. In addition, the CC50 with H160 (Lung) (Homo sapiens, read-out: LC50) stood at 21.7 µM; with IGROV1 (Ovary) (Homo sapiens, IGROV-1, 48 h, read-out: LC50), 67.4 µM; in the assay with MCF7 (Breast) (Homo sapiens, MCF7, 48 h, read-out: LC50) it was 24.1 µM; in the assay on HCT15 (Colon) (Homo sapiens, HCT-15, 48 h, read-out: LC50), 76.3 µM; with U251 (CNS) (Homo sapiens, U-251, 48 h, read-out: LC50), 68.5 µM; in the assay with SU8686 (Pancreas) (Homo sapiens, SU.86.86, 48 h, read-out: LC50), 23.1 µM. The CC50 in the assay with LOXIMVI (Melanoma) (Homo sapiens, LOX IMVI, read-out: LC50) was found to be 97.2 µM. The concentration for 50% growth inhibition (GI50) in the assay with H160 (Lung) (Homo sapiens, H160, SRB) is 4.13 µM; in the assay on IGROV1 (Ovary) (Homo sapiens, IGROV-1, IGROV1, SRB, 48 h) it was 5.49 µM; with MCF7 (Breast) (Homo sapiens, MCF7, SRB, 48 h), 7.04 µM; with HCT15 (Colon) (Homo sapiens, HCT-15, HCT15, SRB, 48 h), 6.39 µM; in the assay on U251 (CNS) (Homo sapiens, U-251, U251, SRB, 48 h, read-out: GI50), 6.77 µM; in the assay with SU8686 (Pancreas) (Homo sapiens, SU.86.86, SU8686, SRB, 48 h), 7.45 µM. This compound also came in with a GI50 with LOXIMVI (Melanoma) (Homo sapiens, LOX IMVI, LOXIMVI, SRB) of 7.14 µM. Also, the “inhibition of cell proliferation and viability (MTT)” value in assay [1] was “strong inhibition of cell proliferation and viability”. Also, in assay [2] (SRB, all cell line panels), the “GI50 action in all cell line panels tested (in words)” value was “mostly single-digit micromolar GI50 action”. The “viability and/or cell proliferation of neoplastic cell lines” value in [2] (lung, breast, CNS, colon, prostate, ovary, pancreas, kidney and melanoma lines, including a multidrug resistant cell line) is recorded as “reduced the viability and/or cell proliferation”.
